Assay results: patent publication US20110183891A1 (priority 2009, published 2011)
Entries after “also recorded” stand apart in the source; their conditions may differ. Positions of bridges follow the written chain, without caps; N, C: chain ends. Non-standard residues stand in square brackets, D forms with d. Residues, ends and D or L forms follow the SMILES beside them. hArg = N=C(N)NCCCC[C@H](N)C(=O)O; Mpa = O=C(O)CCS

How the values were obtained:
[1] = cited from earlier work
[2] = system: SAP 6 binding to human platelets; settings: for inhibition of SAP 6 binding to human platelets: ADP-activated platelets, Alexa Fluor 488 SAP 6
Procedure: Cells were incubated with labeled enzyme together with ADP and inhibitors respectively at 40° C., then pellets were resuspended in 100 ml Hepes-Tyrode buffer, and fluorescence measured by TECAN (Ex./Em.=488 nm/519 nm). […] T test (mean with SEM), n=3, *P<0.05, **P<0.001.
Recombinnat C. albicans SAP 6 was labeled with Alexa Fluor® 488 based on the Invitrogen Alexa Fluor® 488 protein labeling kit manual. […] To obtain the pure platelets, it needs to be further isolated as follows: (1) carefully transfer 10 ml platelets (including rich plasma) to a 15 ml tube and add 1/10 volume of ACD anticoagulant (6.25 g sodium citrate.2H2O, 3.1 g citric acid anhidrous, 3.4 g D-glucose in 250 ml H2O); (2) pellet platelets by centrifuged at 3000 rpm for 5 minutes at room temperature (note: after centrifugation, supernatant still contains significant amount of platelets and it can be collected for experiments); (3) resuspend the pellet in ˜1 ml Hepes-Tyrode buffer pH=7.4 (134 mM sodium chloride, 12 mM sodium bicarbonate, 2.9 mM potassium chloride, 0.34 mM sodium phosphate monobasic, 5 mM Hepes, 5 mM glucose, 1% BSA). When the human platelets were ready, they were incubated labeled SAP 6 with relative amount of platelets at 4° C., room temperature and 37° C. for 2 h, 1 h and 30 min respectively. The mixtures were washed by Hepes-Tyrode buffer two times at 1500 rpm for 8 min. Resuspended the pellets in Hepes-Tyrode buffer and mounted on glass slides. The glass slides were imaged by the epifluorescence microscope for simultaneous detection of Platelet/SAP 6-AlexaFluor-488 fluorescence (FIGS. 3A-B).
Purified recombination C. albicans SAP 6 was labeled by the Alexa Fluor° 488 Protein Labeling Kit from Invitrogen. […] Fifty μl purified human platelets were added into the total 100 μl reaction mixture. A gradient of ADP concentrations (0.25 μM, 0.5 μM and 1 μM) was designed to test if ADP can activate platelets during the binding assay (FIG. 4A).

[3] = system: SAP 6 binding to A549 cells; assay: Inhibition of labeled SAP 6 binding to human lung carcinoma A549 cells (FACS); type: cell-based; settings: for ratio of positive cells in R4: 400 μM inhibitor + labeled SAP 6, cells + labeled SAP 6 alone 3.23%, cells only 0.69%; for inhibition of SAP 6 binding to A549 cells: 10° C. for 30 min, FACS
Procedure: RGDS peptide or Integrilin® inhibition assay and cell viability assay. Grew human lung carcinoma A 549 cell and harvested the cells with 46×10^4 per ml. Changed the medium from complete growth medium into D-MEM/F-12 without phenol red; and transferred the aliquot volume of 0.2 ml cells into 1.5 ml sterile tubes. Added 50 μl of 2.4 mM RGDS peptide and Integrilin® into sample III and sample IV respectively, incubated all samples at 37° C. for 10 min. Then, added […] labeled Fluoro®-488 SAP 6 into Sample II, Sample III and Sample IV (Sample I is negative control, added 100 μl medium inside). Incubated the four mixtures at 10° C. for 30 min, and then centrifuged the cell cultures at 400 g at 10° C. for 5 min to remove the suspension. Washed the cells 1-2 times with 1 ml D-MEM/F-12 medium without phenol red to remove the unbound compounds. Sort the negative (non-labeling SAP 6) and positive (binding labeled SAP 6) cells by fluorescence-activated cell-sorting (FACS). […] It is often considered as a negative control.

[4] = target: integrin of A549 cells (human lung carcinoma cells)
A549 cells = assay: Morphology assay, rescue of apoptosis of A549 cells induced by SAP 6; type: cell-based, human; settings: bright-field images after two weeks incubation, data not shown

Q: Which “absorption after application to the skin” value ([1]; in vivo) does the source give for `Clc1ccccc1C(c1ccccc1)(c1ccccc1)n1ccnc1` [Clotrimazole] here?
A: The value was “less than 0.5%”.

Q: And the “absorption from the vagina” value ([1]; in vivo)?
A: The value was 3-10%.

Q: For `Clc1ccc(COC(Cn2ccnc2)c2ccc(Cl)cc2Cl)cc1` (stereo not shown) [Econazole], which “absorbed into the blood” value ([1]; in vivo) is on record?
A: Its value is “Less than 1%”.

Q: Which results are given for `N=C(N)NCCCC[C@@H]1NC(=O)CCSSC[C@@H](C(N)=O)NC(=O)[C@@H]2CCCN2C(=O)[C@H](Cc2c[nH]c3ccccc23)NC(=O)[C@H](CC(=O)O)NC(=O)CNC1=O` [Integrilin®] ([Mpa][hArg]GDWPC-NH2; disulfide 1-7)?
A: inhibition of SAP 6 binding to human platelets [2]: dose-dependent inhibition; ratio of positive cells in R4 [3]: 2.42%; inhibition of SAP 6 binding to A549 cells [3]: can inhibit; also recorded: significantly inhibit

Q: For “secreted aspartic protease 6 (SAP 6) from Candida albicans, recombinant (from UniProt P43095) (enzyme)”, which ratio of positive cells in R4 [4] is on record?
A: The ratio of positive cells in R4 was 3.23%.

Q: With “SDGRG: reverse peptide with no competition for integrin binding, negative control” as the molecule, how does the “inhibition of SAP 6 binding to A549 cells” value (“inhibition … to A549 cells” for short) [3] read?
A: Its value is “significantly less inhibition”.

Q: What about the “inhibition … to A549 cells” value ([3]; listed as RDGRG) of the same molecule?
A: The value was “less inhibitory”.

Q: For “Integrilin® (C35H49N11O9S2, molecular weight 831.96) (peptide)”, which ratio of positive cells in R4 [4] is on record?
A: Its ratio of positive cells in R4 is 2.42%.

Q: For `CCC(C)n1ncn(-c2ccc(N3CCN(c4ccc(OCC5COC(Cn6cncn6)(c6ccc(Cl)cc6Cl)O5)cc4)CC3)cc2)c1=O` (stereo not shown) [Itraconazole], which “absorption in the fasting state relative to drug taken with food” value ([1]; in vivo, po) is on record?
A: Its value is 30%.

Q: Which “absorption from the GI tract” value ([1]; in vivo, po) does the source give for `OC(Cn1cncn1)(Cn1cncn1)c1ccc(F)cc1F` [Fluconazole] here?
A: Its value is “almost completely absorbed”.

Q: For `CC(=O)N1CCN(c2ccc(OCC3COC(Cn4ccnc4)(c4ccc(Cl)cc4Cl)O3)cc2)CC1` (stereo not shown) [Ketoconazole], which peak plasma concentrations ([1]; oral doses 200-800 mg) is on record?
A: The peak plasma concentrations was 4 to 20 µg/mL.

Q: For Arg-Gly-Asp-Ser (RGDS), which “rescue of apoptosis of A549 cells induced by SAP 6” value (A549 cells) is on record?
A: The value was “can rescue the apoptosis”.

Q: And the “inhibition of SAP 6 binding to human platelets” value [2]?
A: The value was “dose-dependent inhibition”.

Q: What about the “inhibition of SAP 6 binding to human platelets, compared between inhibitors” value ([2]; FIG. 4B) of the same molecule?
A: Its value is “much stronger than that of Integrilin®”.

Q: What about the “ratio of positive cells in R4” value [3] of the same molecule?
A: Its value is 1.68%.

Q: What about the “inhibition … to A549 cells” value [3] of the same molecule?
A: Its value is “much more inhibition than that of Integrilin®; also recorded: significantly inhibit”.

Q: For RGDS [RGDS peptide (Arg-Gly-Asp-Ser)], which ratio of positive cells in R4 [4] is on record?
A: Its ratio of positive cells in R4 is 1.68%.
